PubChem BioAssay (NCI)
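Grown in 96-well plates, cells were treated for 48 hours with each compound at five concentrations. Insufficient inhibition: endpoint recorded as highest concentration tested. GI50 = concentration required for 50% inhibition of growth. At the TGI there is no net growth.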

Experiments:
Assay in all cases: inhibition of tumour cell growth, NCI panel, 48 h
[1] = test system: HCT-116 colon
[2] = test system: SF-268 CNS
[3] = test system: KM12 colon
[4] = test system: MOLT-4 leukemia
[5] = test system: MALME-3M melanoma
[6] = test system: UO-31 renal
[7] = test system: NCI-H23 lung
[8] = test system: T-47D breast
[9] = test system: SN12C renal
[10] = test system: SK-MEL-5 melanoma
[11] = test system: OVCAR-4 ovarian
[12] = test system: NCI-H460 lung
[13] = test system: MDA-MB-435
[14] = test system: PC-3 prostate
[15] = test system: NCI-H226 lung
[16] = test system: IGROV1 ovarian
[17] = test system: K-562 leukemia
[18] = test system: SF-539 CNS
[19] = test system: A498 renal
[20] = test system: SF-295 CNS
[21] = test system: BT-549 breast
[22] = test system: UACC-62 melanoma
[23] = test system: OVCAR-8 ovarian
[24] = test system: HOP-92 NSCLC
[25] = test system: CCRF-CEM leukemia
[26] = test system: SNB-19 CNS
[27] = test system: NCI/ADR-RES ovarian
[28] = test system: A549 NSCLC
[29] = test system: 786-0 renal
[30] = test system: OVCAR-5 ovarian
[31] = test system: HT29 colon
[32] = test system: HL-60(TB) leukemia
[33] = test system: TK-10 renal
[34] = test system: SW-620 colon
[35] = test system: DU-145 prostate
[36] = test system: LOX IMVI melanoma
[37] = test system: SK-OV-3 ovarian
[38] = test system: SK-MEL-2 melanoma
[39] = test system: MDA-MB-231 breast
[40] = test system: COLO 205 colon
[41] = test system: SNB-75 CNS
[42] = test system: HOP-62 NSCLC
[43] = test system: SR leukemia
[44] = test system: EKVX NSCLC
[45] = test system: HS 578T breast
[46] = test system: U251 CNS
[47] = test system: MCF7 breast
[48] = test system: RPMI-8226 leukemia
[49] = test system: M14 melanoma
[50] = test system: OVCAR-3 ovarian
[51] = test system: HCT-15 colon
[52] = test system: ACHN renal
[53] = test system: SK-MEL-28 melanoma
[54] = test system: RXF 393 renal
[55] = test system: NCI-H522 lung
[56] = test system: HCC-2998 colon
[57] = test system: CAKI-1 renal
[58] = test system: UACC-257 melanoma

In the case of `COc1ccc(C2C(C#N)=C(/N=C/c3ccc(Cl)cc3)Oc3c2sc2c(C)cccc32)cc1` (stereo unspecified), the GI50 [1] is reported as 1.55 µM, the TGI [1] is reported as 13.4 µM and the GI50 [2] is reported as 4.28 µM. For the same compound, the TGI [2] was 21.2 µM, the GI50 [3] was 1.4 µM and the TGI [3] was 12.6 µM. It also gave a GI50 [4] of 3.37 µM, a TGI [4] of 28.7 µM and a GI50 [5] of 2.28 µM. For the same compound, the TGI [5] was 19.8 µM, the GI50 [6] was 1.97 µM and the TGI [6] was 16 µM. The GI50 [7] was 2.34 µM, the TGI [7] was 12.6 µM and the GI50 [8] was 1.77 µM. The TGI [8] was 23.1 µM, the GI50 [9] was 2.79 µM and the TGI [9] was 12.7 µM. For the same compound, the GI50 [10] was 1.44 µM, the TGI [10] was 13.1 µM and the GI50 [11] was 3.4 µM. It also gave a TGI [11] of 25.9 µM, a GI50 [12] of 1.71 µM and a TGI [12] of 12.8 µM. For the same compound, the GI50 [13] was 0.312 µM, the TGI [13] was 0.993 µM and the GI50 [14] was 2.01 µM. It also gave a TGI [14] of 18.1 µM, a GI50 [15] of 6.02 µM and a TGI [15] of 24.3 µM. The GI50 [16] was 2.27 µM, the TGI [16] was 17.4 µM and the GI50 [17] was 0.404 µM. For the same compound, the TGI [17] was > 100 µM, the GI50 [18] was 1.31 µM and the TGI [18] was 3.54 µM. The GI50 [19] was 12.6 µM, the TGI [19] was 27.5 µM and the GI50 [20] was 1.19 µM. For the same compound, the TGI [20] was 10.3 µM, the GI50 [21] was 1.21 µM and the TGI [21] was 18.8 µM. The GI50 [22] was 0.515 µM, the TGI [22] was 10.2 µM and the GI50 [23] was 2.87 µM. For the same compound, the TGI [23] was 11.4 µM, the GI50 [24] was 1.69 µM and the TGI [24] was 18.1 µM. The GI50 [25] was 3.01 µM, the TGI [25] was > 100 µM and the GI50 [26] was 3.57 µM. The TGI [26] was 16.7 µM, the GI50 [27] was 0.668 µM and the TGI [27] was 4.49 µM. The GI50 [28] was 2.22 µM, the TGI [28] was 28.9 µM and the GI50 [29] was 4.34 µM. For the same compound, the TGI [29] was 28.2 µM, the GI50 [30] was 2.81 µM and the TGI [30] was 12.4 µM. The GI50 [31] was 2.76 µM, the TGI [31] was 8.76 µM and the GI50 [32] was 0.433 µM. The TGI [32] was 2.94 µM, the GI50 [33] was 12.5 µM and the TGI [33] was 37.1 µM. It also gave a GI50 [34] of 1.11 µM, a TGI [34] of 16.3 µM and a GI50 [35] of 3.2 µM. For the same compound, the TGI [35] was 14 µM, the GI50 [36] was 1.89 µM and the TGI [36] was 13.4 µM. It also gave a GI50 [37] of 3.12 µM, a TGI [37] of 17.5 µM and a GI50 [38] of 2.17 µM. The TGI [38] was 13 µM, the GI50 [39] was 2.73 µM and the TGI [39] was 13.8 µM. It also gave a GI50 [40] of 2.59 µM, a TGI [40] of 6.96 µM and a GI50 [41] of 3.08 µM. The TGI [41] was 23.2 µM, the GI50 [42] was 4.07 µM and the TGI [42] was 19.7 µM. For the same compound, the GI50 [43] was 0.413 µM, the TGI [43] was 20.6 µM and the GI50 [44] was 3.87 µM. The TGI [44] was 17.3 µM, the GI50 [45] was 2.44 µM and the TGI [45] was 19.1 µM. For the same compound, the GI50 [46] was 2.96 µM, the TGI [46] was 14 µM and the GI50 [47] was 0.549 µM. It also gave a TGI [47] of 21.4 µM, a GI50 [48] of 3.21 µM and a TGI [48] of 18.5 µM. For the same compound, the GI50 [49] was 1.59 µM, the TGI [49] was 10.8 µM and the GI50 [50] was 0.753 µM. The TGI [50] was 3.69 µM, the GI50 [51] was 0.731 µM and the TGI [51] was 10.5 µM. It also gave a GI50 [52] of 3.94 µM, a TGI [52] of 17.8 µM and a GI50 [53] of 1.51 µM. The TGI [53] was 18.8 µM, the GI50 [54] was 2.12 µM and the TGI [54] was 10.5 µM. The GI50 [55] was 0.247 µM, the TGI [55] was 0.858 µM and the GI50 [56] was 1.91 µM. It also gave a TGI [56] of 5.99 µM, a GI50 [57] of 4.03 µM and a TGI [57] of 22.3 µM. It also gave a GI50 [58] of 12.3 µM and a TGI [58] of 31.5 µM.
